Test [1] concerns Arabidopsis thaliana transformed with Hydrilla PDS constructs. Kind of test: Herbicide resistance of transformed Arabidopsis T1 seedlings. Format: in vivo. From the text:
Binary vectors for pds expression in plants included the 1-323 by upstream of the beginning of the putative mature protien, which is assumed to encode for chloroplast signal peptide/s. pHy4ATG5 was mutagenized at the amino acid 304 of pds to replace Arginine by Histidine, Threonine, Serine, or Cysteine, using the QuickChange™ Site-Directed Mutagenesis Kit of Stratagene (La Jolla, Calif.) and the same mutagenesis primers used for p3ORF-ATG indicated in the previous section. The resulting plasmids in this case were pHy4His, pHy4Thr, pHy4Ser and pHy4Cys. A 1.8 kb fragment between the TOPO4 SpeI site and the pds SspI site containing the pds gene was cloned into pCAMBIA1303 (CAMBIA, Canberra, Australia) SpeI-Pm1I sites (SspI and PmlI are compatible) replacing the 2.5 kb gus:mgfp; the resulting plasmid was designated pPDATG1303. The same strategy was used for each of the clones containing amino acid changes, generating plasmids pPDHIS1303, pPDTHR1303, pPDSER1303 and pPDCYS1303. The selectable marker in these constructs is the hygromycin phosphotransferase gene (hptll) for resistance to hygromycin in plants.
Arabidopsis thaliana ecotype Columbia (Col-0) was transformed with Agrobacterium using the floral dip method (Clough, S. J. and Bent, A. F. (1998) Floral dip: a simplified method for Agrobacterium-mediated transformation of Arabidopsis thaliana. The Plant Journal 16(6):735-743). Plants were grown at 21° C. with 16 h/8 h day and night until flowering and continuous light after inoculation (plants inoculated with Agrobacterium were denominated T0 plants). Selection of T1 (seeds produced by T0 plants) seedlings was performed on Petri plates with half-strength Murashige and Skoog (MS) medium (Murashige, T. and Skoog, F. (1962) A revised medium for rapid grOwth and bioassays with tobacco tissue cultures. Physiologia plantarum 15:473-497) supplemented with 1% sucrose, 0.2% phytagel and 300 μg/ml cefotaxime. […]
DNA was extracted according to Dilworth and Frey (2000)foreign genes detected by PCR. […]

Test [2] deals with T1, maize PDS Arg→His at position 292 (Zea mays, UniProt P49086, R292H).
T1 construct: vector-encoded N-terminal residues of pBluescript SK+ (in-frame fusion); made in house; host or cells: E. coli TOP10 (clone pMPDS3-33 from E. T. Wurtzel, mutagenised in house)
In words: Mutant maize PDS enzyme resistance test. Format: biochemical. From the text:
The same mutagenesis procedure as described in the Examples above was used to convert the same key arginine amino acid (position 292, sequence ID No. 6) to histidine in corn PDS. Mutagenesis primers are listed below. A maize cDNA clone of PDS, that actively expressed PDS (basically sequence U37285 ligated in frame into pBluescript SK^+ and cloned in TOP10-cells) was provided by Eleanore T. Wurtzel, N Y (pMPDS3-33 as described in Z H Li, P D Matthews, B Burr & E T Wurtzel: Cloning and characterization of a maize cDNA encoding phytoene desaturase, an enzyme of the carotenoid biosynthetic pathway. Plant Molecular Biology 30: 269-279, 1996).
The resulting mutant maize PDS polynucleotide and protein were tested generally as described in Example 5 above. The mutant maize PDS enzyme ehxibited 50-fold to 60-fold resistance factor as compared to the wild type maize PDS enzyme.

Results on two compounds are retold here after US20110098180A1, “Herbicide-Resistant Plants, And Polynucleotides And Methods For Providing Same” (United States Department of Agriculture, priority 2002, published 2011).

T1 sequence (P49086 97-571 R292H): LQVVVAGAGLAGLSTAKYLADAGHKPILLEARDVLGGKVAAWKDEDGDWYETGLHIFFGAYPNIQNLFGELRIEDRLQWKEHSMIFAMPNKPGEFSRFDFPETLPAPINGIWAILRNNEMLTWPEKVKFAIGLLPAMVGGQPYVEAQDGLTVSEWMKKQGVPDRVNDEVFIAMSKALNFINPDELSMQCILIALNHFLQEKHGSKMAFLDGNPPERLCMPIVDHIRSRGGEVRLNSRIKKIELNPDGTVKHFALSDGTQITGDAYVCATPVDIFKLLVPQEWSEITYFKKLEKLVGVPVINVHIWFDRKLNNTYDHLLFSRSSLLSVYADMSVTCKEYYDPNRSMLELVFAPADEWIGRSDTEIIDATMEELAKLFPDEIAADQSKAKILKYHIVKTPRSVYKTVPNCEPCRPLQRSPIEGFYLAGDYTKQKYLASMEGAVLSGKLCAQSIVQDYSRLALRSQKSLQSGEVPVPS

With `CNc1cnn(-c2cccc(C(F)(F)F)c2)c(=O)c1Cl` [Norflurazon], the “confirmed transformed plants resistant to the herbicide” value in test [1] (construct pPDATG1303) was 1; in test [1] (construct pPDSER1303), 3; in test [1] (construct pPDTHR1303), 1.
As for Fluridone, the “resistance of modified maize PDS enzyme vs wild-type maize PDS enzyme” value in test [2] is listed as “substantially more resistant”.
